Measured values published in US10100056B2, “SHIP1 modulators and methods related thereto” (Aquinox Pharmaceuticals (Canada) Inc., priority 2013, dated 2018).
Marks after values point to notes of the source that are not given here.

Target: T1, His-hSHIP1 enzyme (Homo sapiens, UniProt Q92835)
T1 construct: His
T1 sequence (Q92835 1-1189): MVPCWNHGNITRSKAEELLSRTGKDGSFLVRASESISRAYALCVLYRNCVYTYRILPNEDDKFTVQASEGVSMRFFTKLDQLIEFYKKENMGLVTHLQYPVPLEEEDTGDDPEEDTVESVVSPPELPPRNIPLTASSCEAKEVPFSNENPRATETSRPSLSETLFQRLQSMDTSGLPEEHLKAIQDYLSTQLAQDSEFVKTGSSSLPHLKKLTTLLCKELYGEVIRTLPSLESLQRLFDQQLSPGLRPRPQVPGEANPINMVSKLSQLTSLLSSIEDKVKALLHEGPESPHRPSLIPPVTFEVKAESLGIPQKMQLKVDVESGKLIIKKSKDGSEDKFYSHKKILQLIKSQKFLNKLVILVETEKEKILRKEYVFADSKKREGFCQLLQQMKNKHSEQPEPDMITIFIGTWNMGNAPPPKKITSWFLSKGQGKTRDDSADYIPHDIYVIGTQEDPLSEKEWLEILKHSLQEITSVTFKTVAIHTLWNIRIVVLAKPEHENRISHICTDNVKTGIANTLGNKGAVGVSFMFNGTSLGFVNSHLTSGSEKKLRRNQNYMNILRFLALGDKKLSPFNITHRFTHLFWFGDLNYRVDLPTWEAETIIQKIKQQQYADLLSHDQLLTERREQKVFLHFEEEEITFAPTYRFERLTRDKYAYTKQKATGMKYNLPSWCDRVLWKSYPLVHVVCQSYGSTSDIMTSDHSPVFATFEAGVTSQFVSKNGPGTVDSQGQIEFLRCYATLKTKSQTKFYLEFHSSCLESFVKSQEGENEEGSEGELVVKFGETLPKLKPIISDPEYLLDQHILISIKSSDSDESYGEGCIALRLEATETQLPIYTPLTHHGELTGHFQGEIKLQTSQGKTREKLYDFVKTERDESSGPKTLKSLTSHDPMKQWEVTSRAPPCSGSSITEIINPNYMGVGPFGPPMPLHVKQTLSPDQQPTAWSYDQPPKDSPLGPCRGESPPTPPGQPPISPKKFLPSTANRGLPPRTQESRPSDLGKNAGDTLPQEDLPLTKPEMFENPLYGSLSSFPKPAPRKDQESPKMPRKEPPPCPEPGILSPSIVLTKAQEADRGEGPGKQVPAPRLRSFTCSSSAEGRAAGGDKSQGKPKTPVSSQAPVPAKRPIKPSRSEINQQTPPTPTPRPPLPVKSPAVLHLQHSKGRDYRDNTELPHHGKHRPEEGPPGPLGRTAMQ
Assay: His-hSHIP1 activity (phosphatase assay, IP4 substrate, Biomol Green)
Assay type: biochemical
Design: key to Scoring, Approach 2 (Initial velocity Ratio): +++: higher than reference or reference - 15%; ++: reference - 16% to reference - 30%; +: reference - 31% or lower; −: inhibitor
Conditions: for Scoring, Approach 2 (Initial velocity Ratio): second approach: ratio of initial velocities IP4 25/250 μM compared with reference compound, values without asterisk
Experimental: Test compounds are dissolved in 95% ethanol to form stock solutions. Before screening, the stock solutions are diluted with Phosphatase Assay Buffer (20 mM Tris-HCL, 10 mM MgCl2 pH 7.5, 0.02% Tween 20) to form working assay solutions that contain 10% ethanol. The assay is carried out on 96-well microtiter plates using a modified procedure of that reported by Ong et al., Blood 110, 1942-1949, 2007 and Yang et al., Org Lett 7, 1073-1076, 2005, both of which references are incorporated herein by reference in their entirety.
Data were generated by one of two variant methods. Test compounds are screened by one of two approaches described as follows. In the first approach, each reaction contains 5 μL of His-hSHIP1 enzyme (5-20 ng), 10 μL of the substrate, 1,3,4,5-inositol tetrakisphosphate (IP4; 50 μM final), 5 μL of Phosphatase Assay Buffer, and 5 µL of test compound at various concentrations in 10% ethanol (0-300 μM final). Control blanks are also prepared by replacing His-hSHIP1 enzyme, IP4, or test compounds with Phosphatase Assay Buffer. After adding the reaction components in a 96-well microtiter plate on ice, the reaction is mixed by briefly shaking the plate vigorously. The reaction is then incubated at 37° C. for 15 min with gentle shaking followed by addition of 100 μL of Biomol Green Reagent (BIOMOL, PA, USA) to terminate the reaction. The free phosphate released from IP4 by His-hSHIP1 binds to the Biomol Green Reagent, which turns the dye to green color. After incubating the mixture for 20 min at room temperature for color development, the absorbance is read with SpectraMax Plus 96-well plate reader (Molecular Devices, Sunnyvale, Calif., USA) at a wavelength of 650 nm.
In the second approach, a master mix is prepared that contains 50 μL of His-hSHIP1 enzyme (0.4-1.6 ng/μL final), 25 μL of the substrate, IP4 (25 or 250 μM final), and 50 μL of test compound in 3.3% ethanol (100 μL final). Control blanks are also prepared by replacing His-hSHIP1 enzyme, IP4, or test compounds with Phosphate Assay Buffer. […] Each reaction component is preincubated at 37° C. for 30 min before adding to a 96-well microtiter plate. The master mix is then incubated at 37° C. At time 0, 20, and 30 min, 25 μL of the master mix is removed and transferred to a new 96-well microtiter plate, to which 100 μL of Biomol Green Reagent is added to stop the reaction. After incubating the mixture for 20 min at room temperature for color development, the absorbance is read with SpectraMax Plus 96-well plate reader at a wavelength of 650 nm. Phosphate released is plotted against time to calculate the initial velocities (i.e., slope of the graph) at each IP4 concentration. The initial velocities are baseline corrected and the ratio of initial velocities (IP425/IP4250) is calculated and used to rate the test compounds.

| SMILES | Scoring, Approach 2 (Initial velocity Ratio) | Scoring, Approach 1 (% increase relative to background) (first approach: IP4 50 μM, test compound 0-300 μM, values marked with asterisk) |
| --- | --- | --- |
| C=C1CC[C@H]2[C@H](CCN(Cc3ccc(OC)cc3)Cc3ccc(OC)cc3)[C@@H]([C@@]3(C)CC[C@H](O)C[C@@H]3O)CC[C@]12C [Cpd. No. 43, (1S,3S,4R)-4-((3aS,4S,5S,7aS)-4-(2-(bis(4-methoxybenzyl)amino)ethyl)-7a-methyl-1-methyleneoctahydro-1H-inden-5-yl)-4-methylcyclohexane-1,3-diol] | ++ |  |
| C=C1CC[C@H]2[C@H](CCNCc3ccc(OC)cc3)[C@@H]([C@@]3(C)CC[C@H](O)C[C@@H]3O)CC[C@]12C [Cpd. No. 44, (1S,3S,4R)-4-((3aS,4S,5S,7aS)-4-(2-(4-methoxybenzylamino)ethyl)-7a-methyl-1-methyleneoctahydro-1H-inden-5-yl)-4-methylcyclohexane-1,3-diol] | ++ |  |
| C=C1CC[C@H]2[C@H](CCNCc3ccc4c(c3)OCO4)[C@@H]([C@@]3(C)CC[C@H](O)C[C@@H]3O)CC[C@]12C [Cpd. No. 45, (1S,3S,4R)-4-((3aS,4S,5S,7aS)-4-(2-(benzo[d][1,3]dioxol-5-ylmethylamino)ethyl)-7a-methyl-1-methyleneoctahydro-1H-inden-5-yl)-4-methylcyclohexane-1,3-diol] | − |  |
| C=C1CC[C@H]2[C@H](O)[C@@H]([C@@]3(C)CC[C@H](O)C[C@@H]3CCOc3cnccn3)CC[C@]12C [Cpd. No. 56, (3aR,4R,5R,7aS)-5-((1S,2S,4S)-4-hydroxy-1-methyl-2-(2-(pyrazin-2-yloxy)ethyl)cyclohexyl)-7a-methyl-1-methyleneoctahydro-1H-inden-4-ol] | − |  |
| CC1(C)C=CC2=C1CC[C@H]([C@@]1(C)CC[C@H](O)C[C@@H]1CO)[C@H]2CO [Cpd. No. 65, (1S,3S,4R)-3-(hydroxymethyl)-4-((4R,5S)-4-(hydroxymethyl)-1,1-dimethyl-4,5,6,7-tetrahydro-1H-inden-5-yl)-4-methylcyclohexanol] | ++ |  |
| CC1(C)C2=C(C[C@H]1O)[C@H](CO)[C@@H]([C@@]1(C)CC[C@H](O)C[C@@H]1CO)CC2 [Cpd. No. 66, (2R,4R,5S)-5-((1R,2S,4S)-4-hydroxy-2-(hydroxymethyl)-1-methylcyclohexyl)-4-(hydroxymethyl)-1,1-dimethyl-2,3,4,5,6,7-hexahydro-1H-inden-2-ol] | + |  |

Other lines, results leading:

| Scoring, Approach 2 (Initial velocity Ratio) | Scoring, Approach 1 (% increase relative to background) (first approach: IP4 50 μM, test compound 0-300 μM, values marked with asterisk) | SMILES |
| --- | --- | --- |
| ++ |  | C=C1CC[C@H]2[C@H](Cn3cccn3)[C@@H]([C@@]3(C)CC[C@H](O)C[C@@H]3CO)CC[C@]12C [Cpd. No. 26, (1S,3S,4R)-4-((3aS,4R,5S,7aS)-4-((1H-pyrazol-1-yl)methyl)-7a-methyl-1-methyleneoctahydro-1H-inden-5-yl)-3-(hydroxymethyl)-4-methylcyclohexanol] |
| ++ |  | C=C1CC[C@H]2[C@H](CNCc3ccc4c(c3)OC(F)(F)O4)[C@@H]([C@@]3(C)CC[C@H](O)C[C@@H]3CO)CC[C@]12C [Cpd. No. 37, (1S,3S,4R)-4-((3aS,4R,5S,7aS)-4-(((2,2-difluorobenzo[d][1,3]dioxol-5-yl)methylamino)methyl)-7a-methyl-1-methyleneoctahydro-1H-inden-5-yl)-3-(hydroxymethyl)-4-methylcyclohexanol] |
| + |  | C=C1CC[C@H]2[C@H](CN)[C@@H]([C@@]3(C)CC[C@H](O)C[C@@H]3CN)CC[C@]12C [Cpd. No. 47, (1S,3S,4R)-3-(aminomethyl)-4-((3aS,4R,5S,7aS)-4-(aminomethyl)-7a-methyl-1-methyleneoctahydro-1H-inden-5-yl)-4-methylcyclohexanol] |
| − |  | C=C1CC[C@H]2[C@H](O)[C@@H]([C@@]3(C)CC[C@H](O)C[C@@H]3CCn3cccc3)CC[C@]12C [Cpd. No. 52, (3aR,4R,5R,7aS)-5-((1S,2S,4S)-2-(2-(1H-pyrrol-1-yl)ethyl)-4-hydroxy-1-methylcyclohexyl)-7a-methyl-1-methyleneoctahydro-1H-inden-4-ol] |
| ++ |  | C=C1CC[C@H]2[C@H](COCc3ccccn3)[C@@H]([C@@]3(C)CC[C@H](O)C[C@@H]3CO)CC[C@]12C [Cpd. No. 61, (1S,3S,4R)-3-(hydroxymethyl)-4-methyl-4-((3aS,4R,5S,7aS)-7a-methyl-1-methylene-4-((pyridin-2-ylmethoxy)methyl)octahydro-1H-inden-5-yl)cyclohexanol] |
|  | ++* (50 ≤ x < 65) | C=C1CC[C@H]2[C@H](CO)[C@@H]([C@@]3(C)CC[C@H](N)C[C@@H]3CO)CC[C@]12C [Cpd. No. 63, ((1S,2R,5S)-5-amino-2-((3aS,4R,5S,7aS)-4-(hydroxymethyl)-7a-methyl-1-methyleneoctahydro-1H-inden-5-yl)-2-methylcyclohexyl)methanol] |
| ++ |  | C=C1CC[C@H]2[C@H](COCc3ccccc3)[C@@H]([C@@]3(C)CC[C@H](O)C[C@@H]3CO)CC[C@]12C [Cpd. No. 67, (1S,3S,4R)-4-((3aS,4R,5S,7aS)-4-(benzyloxymethyl)-7a-methyl-1-methyleneoctahydro-1H-inden-5-yl)-3-(hydroxymethyl)-4-methylcyclohexanol] |
| + |  | C=C1CC[C@H]2[C@H](CNC(=O)c3cccnc3)[C@@H]([C@@]3(C)CC[C@H](O)C[C@@H]3CO)CC[C@]12C [Cpd. No. 69, N-(((3aS,4R,5S,7aS)-5-((1R,2S,4S)-4-hydroxy-2-(hydroxymethyl)-1-methylcyclohexyl)-7a-methyl-1-methyleneoctahydro-1H-inden-4-yl)methyl)nicotinamide] |
| + |  | C=C1CC[C@H]2[C@H](CNC(=O)NCc3ccccc3)[C@@H]([C@@]3(C)CC[C@H](O)C[C@@H]3CO)CC[C@]12C [Cpd. No. 91, 1-benzyl-3-(((3aS,4R,5S,7aS)-5-((1R,2S,4S)-4-hydroxy-2-(hydroxymethyl)-1-methylcyclohexyl)-7a-methyl-1-methyleneoctahydro-1H-inden-4-yl)methyl)urea] |
